Experimental data from ChEMBL document CHEMBL5143744, “Discovery of Tenapanor: A First-in-Class Minimally Systemic Inhibitor of Intestinal Na+/H+ Exchanger Isoform 3” (ACS Med Chem Lett, 2022).
pIC50: −log10 of the molar value. Blank lines part the entries; values can stand above or below the molecule they belong to. Calls of active or inactive are those of the source. The calls are words filed in the database; no cut-off is given here.

Assays:
hERG (KCNH2) = hERG (KCNH2) (Homo sapiens, UniProt Q12809); test: Inhibition of human ERG at 10 uM relative to control; format: toxicity
hERG (KCNH2), sequence (Q12809 whole entry): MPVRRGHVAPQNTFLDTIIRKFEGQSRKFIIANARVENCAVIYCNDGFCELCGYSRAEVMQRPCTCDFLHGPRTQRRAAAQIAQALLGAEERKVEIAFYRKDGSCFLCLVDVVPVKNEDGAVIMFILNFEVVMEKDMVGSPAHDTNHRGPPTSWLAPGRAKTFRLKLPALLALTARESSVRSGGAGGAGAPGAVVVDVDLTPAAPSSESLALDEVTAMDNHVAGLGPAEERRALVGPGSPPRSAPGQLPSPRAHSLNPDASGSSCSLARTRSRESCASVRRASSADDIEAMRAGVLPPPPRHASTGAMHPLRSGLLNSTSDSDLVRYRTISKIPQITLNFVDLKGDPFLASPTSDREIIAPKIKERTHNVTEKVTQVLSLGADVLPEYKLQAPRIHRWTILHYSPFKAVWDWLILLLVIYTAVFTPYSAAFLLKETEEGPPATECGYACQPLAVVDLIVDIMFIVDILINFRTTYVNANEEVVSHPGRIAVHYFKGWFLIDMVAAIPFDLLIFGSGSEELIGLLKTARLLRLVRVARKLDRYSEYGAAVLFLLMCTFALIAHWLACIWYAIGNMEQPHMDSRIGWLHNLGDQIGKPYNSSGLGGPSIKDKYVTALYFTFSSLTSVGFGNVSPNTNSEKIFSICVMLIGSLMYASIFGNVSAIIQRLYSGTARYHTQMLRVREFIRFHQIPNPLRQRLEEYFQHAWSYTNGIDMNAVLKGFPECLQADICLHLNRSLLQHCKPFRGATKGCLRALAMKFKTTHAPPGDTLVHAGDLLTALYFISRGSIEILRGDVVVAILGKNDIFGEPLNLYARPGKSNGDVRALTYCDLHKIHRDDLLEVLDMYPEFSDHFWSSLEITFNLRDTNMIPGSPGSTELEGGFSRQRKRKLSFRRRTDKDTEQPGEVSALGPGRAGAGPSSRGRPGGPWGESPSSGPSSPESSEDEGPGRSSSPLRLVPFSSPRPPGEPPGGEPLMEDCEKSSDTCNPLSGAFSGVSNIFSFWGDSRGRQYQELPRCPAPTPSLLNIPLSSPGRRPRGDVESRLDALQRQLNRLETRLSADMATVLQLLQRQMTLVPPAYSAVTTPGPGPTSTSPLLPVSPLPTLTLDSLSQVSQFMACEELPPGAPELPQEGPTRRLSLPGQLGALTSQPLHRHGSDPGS

[1] = Drug metabolism in Sprague-Dawley rat at 30 mg/kg, po administered via gavage by LC-MS/MS analysis; format: ADME, organism-based; details: in vivo
[2] = Toxicity in Sprague-Dawley rat assessed as change in alanine aminotransferase level at 30 mg/kg, po administered for 7 days measured on day 8; format: organism-based; details: in vivo, 192 h, time 8 day
[3] = In vivo inhibition of NEH3 in Sprague-Dawley rat assessed as increase in fecal water content at 0.1 to 3 mg/kg, po administered via gavage measured after 6 hrs; format: functional; parameters: scale not given: the % may be the effect or the level left; details: dose 0.1-3 mg/kg
[4] = target: Sodium/hydrogen exchanger 3 (Rattus norvegicus, UniProt P26433); test: Inhibition of rat NHE3 expressed in opossum kidney cells assessed as reduction in Na-HEPES buffer-mediated pH recovery in presence of NEH1 inhibitor ethyl isopropyl amiloride by BCECF-AM dye based fluorescence assay; format: cell-based, Kidney epithelial cell
Sodium/hydrogen exchanger 3 (Rattus norvegicus, UniProt P26433), sequence (P26433 whole entry): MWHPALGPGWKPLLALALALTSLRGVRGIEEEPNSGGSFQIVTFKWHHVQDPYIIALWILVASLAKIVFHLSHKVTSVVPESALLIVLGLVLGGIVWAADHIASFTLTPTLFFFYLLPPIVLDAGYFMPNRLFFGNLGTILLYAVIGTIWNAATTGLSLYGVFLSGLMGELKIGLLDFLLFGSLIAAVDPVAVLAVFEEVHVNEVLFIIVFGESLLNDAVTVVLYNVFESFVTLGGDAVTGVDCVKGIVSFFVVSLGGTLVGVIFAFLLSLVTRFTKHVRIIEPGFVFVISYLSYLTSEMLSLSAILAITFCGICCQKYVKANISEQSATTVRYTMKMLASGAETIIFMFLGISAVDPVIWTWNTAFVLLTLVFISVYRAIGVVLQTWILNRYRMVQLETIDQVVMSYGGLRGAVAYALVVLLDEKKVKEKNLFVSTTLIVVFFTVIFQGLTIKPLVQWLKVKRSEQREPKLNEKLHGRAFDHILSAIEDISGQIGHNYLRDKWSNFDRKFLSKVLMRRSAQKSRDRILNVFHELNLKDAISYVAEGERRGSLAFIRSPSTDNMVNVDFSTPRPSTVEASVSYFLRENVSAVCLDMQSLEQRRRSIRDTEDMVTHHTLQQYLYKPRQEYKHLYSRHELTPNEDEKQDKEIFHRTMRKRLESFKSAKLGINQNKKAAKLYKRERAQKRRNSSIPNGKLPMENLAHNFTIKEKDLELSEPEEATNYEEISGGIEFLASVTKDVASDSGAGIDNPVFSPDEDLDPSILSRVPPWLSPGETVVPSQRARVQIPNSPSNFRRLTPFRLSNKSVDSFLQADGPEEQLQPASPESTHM

[5] = Toxicity in Sprague-Dawley rat assessed as gross pathological changes at 30 mg/kg, po administered for 7 days measured on day 8 by necropsy; format: organism-based; details: in vivo, 192 h, time 8 day
[6] = Toxicity in Sprague-Dawley rat assessed as diarrhea at 30 mg/kg, po administered for 7 days; format: organism-based; details: in vivo, 168 h, time 7 day
[7] = Toxicity in Sprague-Dawley rat assessed as change in aspartate aminotransferase level at 30 mg/kg, po administered for 7 days measured on day 8; format: organism-based; details: in vivo, 192 h, time 8 day
Rattus norvegicus = test: In vivo inhibition of NEH3 in Sprague-Dawley rat assessed as reduction in sodium excretion in urine at 0.1 to 3 mg/kg, po administered via gavage measured after 16 hrs by ion chromatography; format: functional, organism-based; details: dose 0.1-3 mg/kg
[8] = Drug metabolism in Sprague-Dawley rat feces at 0.1 mg/kg, po administered via gavage measured after 72 hrs by LC-MS/MS analysis; format: ADME, organism-based; details: in vivo
[9] = Toxicity in Sprague-Dawley rat assessed as pathological changes at 30 mg/kg, po administered for 7 days measured on day 8 by microscopy; format: organism-based; details: in vivo, 192 h, time 8 day
[10] = target: T1, Sodium/hydrogen exchanger 3 (Homo sapiens, UniProt P48764); test: Inhibition of human NHE3 expressed in opossum kidney cells assessed as reduction in Na-HEPES buffer-mediated pH recovery in presence of NEH1 inhibitor ethyl isopropyl amiloride by BCECF-AM dye based fluorescence assay; format: cell-based, Kidney epithelial cell
T1 sequence (P48764 whole entry): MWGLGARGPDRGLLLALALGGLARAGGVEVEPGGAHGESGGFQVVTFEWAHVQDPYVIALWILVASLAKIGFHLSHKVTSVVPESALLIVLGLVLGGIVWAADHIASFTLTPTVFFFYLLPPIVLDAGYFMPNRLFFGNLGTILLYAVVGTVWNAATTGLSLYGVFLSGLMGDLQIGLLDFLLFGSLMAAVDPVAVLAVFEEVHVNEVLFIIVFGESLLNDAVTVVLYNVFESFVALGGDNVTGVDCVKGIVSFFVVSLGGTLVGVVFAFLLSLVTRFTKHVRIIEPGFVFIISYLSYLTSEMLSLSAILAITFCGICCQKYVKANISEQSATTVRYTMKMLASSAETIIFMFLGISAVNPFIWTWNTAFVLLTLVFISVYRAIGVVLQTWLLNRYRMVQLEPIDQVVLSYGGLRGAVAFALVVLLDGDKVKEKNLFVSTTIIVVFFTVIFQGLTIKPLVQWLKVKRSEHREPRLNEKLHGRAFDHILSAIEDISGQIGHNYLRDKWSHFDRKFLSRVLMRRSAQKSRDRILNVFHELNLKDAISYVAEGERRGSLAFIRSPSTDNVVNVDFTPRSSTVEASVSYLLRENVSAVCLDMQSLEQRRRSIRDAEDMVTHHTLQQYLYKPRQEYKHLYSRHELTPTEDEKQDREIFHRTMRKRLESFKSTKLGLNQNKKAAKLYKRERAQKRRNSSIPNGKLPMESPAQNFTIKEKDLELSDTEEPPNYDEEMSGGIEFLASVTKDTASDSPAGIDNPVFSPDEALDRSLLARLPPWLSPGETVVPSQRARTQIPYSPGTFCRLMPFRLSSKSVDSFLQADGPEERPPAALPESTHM

[11] = Cmax in Sprague-Dawley rat at 30 mg/kg, po administered via gavage by LC-MS/MS analysis; format: ADME, organism-based; parameters: dose 30 mg/kg, route po; details: in vivo
[12] = Drug recovery in Sprague-Dawley rat feces at 0.1 mg/kg, po administered via gavage measured after 72 hrs by LC-MS/MS analysis; format: ADME, organism-based; details: faeces, read-out: Drug recovery
[13] = In vivo inhibition of NEH3 in Sprague-Dawley rat assessed as fecal water content at 3 mg/kg, po administered via gavage measured after 6 hrs; format: functional; parameters: scale not given: the % may be the effect or the level left
[14] = In vivo inhibition of NEH3 in Sprague-Dawley rat assessed as fecal form score at 3 mg/kg, po administered via gavage measured after 6 hrs; format: functional
[15] = In vivo inhibition of NEH3 in Sprague-Dawley rat assessed as sodium excretion in urine at 3 mg/kg, po administered via gavage measured after 16 hrs by ion chromatography relative to control; parameters: scale not given: the % may be the effect or the level left
[16] = Cmax in Sprague-Dawley rat at 1.8 mg/kg, po administered via gavage by LC-MS/MS analysis; format: ADME, organism-based; parameters: dose 1.8 mg/kg, route po; details: in vivo
[17] = AUC in Sprague-Dawley rat at 1.8 mg/kg, po administered via gavage by LC-MS/MS analysis; details: in vivo
[18] = Cmax in Sprague-Dawley rat at 19 mg/kg, po administered via gavage by LC-MS/MS analysis; format: ADME, organism-based; parameters: dose 19 mg/kg, route po; details: in vivo
[19] = AUC in Sprague-Dawley rat at 19 mg/kg, po administered via gavage by LC-MS/MS analysis; details: in vivo
[20] = Cmax in Sprague-Dawley rat at 17 mg/kg, po administered via gavage by LC-MS/MS analysis; format: ADME, organism-based; parameters: dose 17 mg/kg, route po; details: in vivo
[21] = AUC in Sprague-Dawley rat at 17 mg/kg, po administered via gavage by LC-MS/MS analysis; details: in vivo
[22] = AUC in Sprague-Dawley rat at 23 mg/kg, po administered via gavage by LC-MS/MS analysis; details: in vivo
[23] = Cmax in Sprague-Dawley rat at 23 mg/kg, po administered via gavage by LC-MS/MS analysis; format: ADME, organism-based; parameters: dose 23 mg/kg, route po; details: in vivo
[24] = Dose normalized AUC in Sprague-Dawley rat at 5.3 mg/kg, po administered via gavage by LC-MS/MS analysis; format: ADME, organism-based; details: in vivo
[25] = AUC in Sprague-Dawley rat at 22 mg/kg, po administered via gavage by LC-MS/MS analysis; details: in vivo
[26] = Cmax in Sprague-Dawley rat at 22 mg/kg, po administered via gavage by LC-MS/MS analysis; format: ADME, organism-based; parameters: dose 22 mg/kg, route po; details: in vivo
[27] = Drug recovery in Sprague-Dawley rat feces at 0.3 mg/kg, po administered via gavage measured after 64 hrs by LC-MS/MS analysis; format: ADME, organism-based; details: faeces, read-out: Drug recovery
[28] = Drug metabolism in Sprague-Dawley rat feces at 0.3 mg/kg, po administered via gavage measured after 64 hrs by LC-MS/MS analysis; format: ADME, organism-based; details: in vivo
[29] = AUC in Sprague-Dawley rat at 28 mg/kg, po administered via gavage by LC-MS/MS analysis; details: in vivo
[30] = Cmax in Sprague-Dawley rat at 28 mg/kg, po administered via gavage by LC-MS/MS analysis; format: ADME, organism-based; parameters: dose 28 mg/kg, route po; details: in vivo
[31] = Cmax in Sprague-Dawley rat at […], po administered via gavage by LC-MS/MS analysis; format: ADME, organism-based; parameters: dose 7.2 mg/kg, route po; details: in vivo
[32] = Dose normalized AUC in Sprague-Dawley rat at […], po administered via gavage by LC-MS/MS analysis; format: ADME, organism-based; details: in vivo, dose 7.2 mg/kg

SMILES: CN1Cc2c(Cl)cc(Cl)cc2[C@H](c2cccc(S(=O)(=O)NCCOCCOCCNC(=O)NCCCCNC(=O)NCCOCCOCCNS(=O)(=O)c3cccc([C@@H]4CN(C)Cc5c(Cl)cc(Cl)cc54)c3)c2)C1 [TENAPANOR]
inhibition at 10 µM (hERG (KCNH2)): < 50%
Drug metabolism [1]: Metabolite_Notdetected
Activity [2]: Non-Toxic
Activity [3]: 10%
pIC50 [4]: 7.80
Activity [5]: Non-Toxic
Activity [6]: Toxic
Activity [7]: Non-Toxic
inhibition (Rattus norvegicus): Active
Drug metabolism [8]: Metabolite_Detected
Activity [9]: Non-Toxic
pIC50 [10]: 9.30
Cmax [11]: < 3 ng/mL
dose excreted at 72 h [12]: 92%

SMILES: CN1Cc2c(Cl)cc(Cl)cc2C(c2cccc(S(=O)(=O)NCCOCCOCCOCCNC(=O)NCCOCCOCCOCCNS(=O)(=O)c3cccc(C4CN(C)Cc5c(Cl)cc(Cl)cc54)c3)c2)C1 (racemic)
Activity [13]: 50%
Activity [14]: 1
pIC50 [4]: 7.00
Activity [15]: 87%
Cmax [16]: < 20 ng/mL
AUC [17]: < 75 ng·h/mL
pIC50 [10]: 6.70

SMILES: CN1Cc2c(Cl)cc(Cl)cc2C(c2ccc(S(=O)(=O)NCCOCCOCCOCCNC(=O)c3ccc(C(=O)NCCOCCOCCOCCNS(=O)(=O)c4ccc(C5CN(C)Cc6c(Cl)cc(Cl)cc65)cc4)cc3)cc2)C1 (racemic)
Activity [13]: 56%
Activity [14]: 1.5
pIC50 [4]: 7.90
Activity [15]: 50%
Cmax [18]: < 3 ng/mL
pIC50 [10]: 7.40
AUC [19]: < 9 ng·h/mL

SMILES: CN1Cc2c(Cl)cc(Cl)cc2C(c2ccc(S(=O)(=O)NCCOCCOCCNC(=O)NCCOCCOCCNS(=O)(=O)c3ccc(C4CN(C)Cc5c(Cl)cc(Cl)cc54)cc3)cc2)C1 (racemic)
Activity [13]: 49%
Activity [14]: 1
Activity [15]: 107%
Cmax [20]: < 2 ng/mL
AUC [21]: < 8 ng·h/mL

SMILES: CN1Cc2c(Cl)cc(Cl)cc2C(c2ccc(S(=O)(=O)NCCOCCOCCNC(=O)c3ccc(C(=O)NCCOCCOCCNS(=O)(=O)c4ccc(C5CN(C)Cc6c(Cl)cc(Cl)cc65)cc4)cc3)cc2)C1 (racemic)
Activity [13]: 56%
Activity [14]: 2
pIC50 [4]: 6.40
Activity [15]: 45%
AUC [22]: < 8 ng·h/mL
Cmax [23]: < 3 ng/mL

SMILES: CN1Cc2c(Cl)cc(Cl)cc2C(c2ccc(S(=O)(=O)NCCOCCOCCOCCNC(=O)NCCOCCOCCOCCNS(=O)(=O)c3ccc(C4CN(C)Cc5c(Cl)cc(Cl)cc54)cc3)cc2)C1 (configuration not stated)
Activity [13]: 60%
Activity [15]: 25%
AUC [24]: < 19 ng·h/mL

SMILES: CN1Cc2c(Cl)cc(Cl)cc2C(c2cccc(S(=O)(=O)NCCOCCOCCNC(=O)c3ccc(C(=O)NCCOCCOCCNS(=O)(=O)c4cccc(C5CN(C)Cc6c(Cl)cc(Cl)cc65)c4)cc3)c2)C1 (racemic)
Activity [13]: 58%
Activity [14]: 2
AUC [25]: < 8 ng·h/mL
pIC50 [4]: 5.20
Activity [15]: 24%
Cmax [26]: < 2 ng/mL

Drug metabolism [1]: Metabolite_Notdetected
dose excreted at 64 h [27]: 117%
Cmax ([11]; Sprague-Dawley, read-out: Cmax): < 2 ng/mL
Drug metabolism [28]: Metabolite_Notdetected
SMILES: CN1Cc2c(Cl)cc(Cl)cc2[C@H](c2cccc(S(=O)(=O)NCCOCCOCCNC(=O)COCC(=O)NCCOCCOCCNS(=O)(=O)c3cccc([C@@H]4CN(C)Cc5c(Cl)cc(Cl)cc54)c3)c2)C1
inhibition at 10 µM (hERG (KCNH2)): < 50%
Activity [3]: 10%
inhibition (Rattus norvegicus): Active

SMILES: CN1Cc2c(Cl)cc(Cl)cc2C(c2cccc(S(=O)(=O)NCCOCCOCCOCCNC(=O)CCC(=O)NCCOCCOCCOCCNS(=O)(=O)c3cccc(C4CN(C)Cc5c(Cl)cc(Cl)cc54)c3)c2)C1 (racemic)
Activity [13]: 54%
Activity [14]: 1.5
Activity [15]: 56%
AUC [29]: < 8 ng·h/mL
Cmax [30]: < 2 ng/mL

SMILES: CN1Cc2c(Cl)cc(Cl)cc2C(c2cccc(S(=O)(=O)NCCOCCOCCOCCNC(=O)c3ccc(C(=O)NCCOCCOCCOCCNS(=O)(=O)c4cccc(C5CN(C)Cc6c(Cl)cc(Cl)cc65)c4)cc3)c2)C1 (racemic)
Activity [13]: 53%
Activity [14]: 1
pIC50 [4]: 7.60
Activity [15]: 87%
Cmax [31]: < 4 ng/mL
AUC [32]: < 12 ng·h/mL
pIC50 [10]: 7.30
